This passage reports Ki results from patent publication US8716475B2, “2-aminopyrimidine modulators of the histamine H4 receptor” (Janssen Pharmaceutica NV, priority 2007, dated 2014).

Usually Ki stands for a dissociation constant, usually derived from enzyme kinetics or from competition with a known ligand.

The target in this experiment is T1, human H4 receptor (Homo sapiens, UniProt Q9H3N8).
T1 construct: expressed in transfected cells
T1 sequence (Q9H3N8 whole entry): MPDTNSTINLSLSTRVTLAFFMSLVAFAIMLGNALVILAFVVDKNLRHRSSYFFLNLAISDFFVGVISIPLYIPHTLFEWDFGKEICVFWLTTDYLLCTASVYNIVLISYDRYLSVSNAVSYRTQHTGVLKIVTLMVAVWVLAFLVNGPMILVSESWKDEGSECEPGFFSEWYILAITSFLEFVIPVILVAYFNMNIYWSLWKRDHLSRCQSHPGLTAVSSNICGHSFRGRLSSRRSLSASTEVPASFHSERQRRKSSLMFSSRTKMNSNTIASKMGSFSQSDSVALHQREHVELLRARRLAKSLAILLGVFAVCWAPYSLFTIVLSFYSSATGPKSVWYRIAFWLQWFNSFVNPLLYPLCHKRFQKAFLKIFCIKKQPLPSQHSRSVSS
Put plainly: Binding Assay on Recombinant Human Histamine H4 Receptor. Particulars: Table 1; [3H] histamine competition binding, membranes of SK-N-MC cells transfected with human H4 receptor; average of results. How it is done:
Binding Assay on Recombinant Human Histamine H4 Receptor.
Cell pellets from SK-N-MC cells stably or transiently transfected with human H4 receptor were used for the binding assays. Cell pellets were homogenized in 50 mM Tris/5 mM EDTA buffer and supernatants from an 800g spin were collected and recentrifuged at 30,000g for 30 min. Pellets were rehomogenized in 50 mM Tris/5 mM EDTA buffer. […] Compounds were tested in free base, hydrochloride salt, or trifluoroacetic acid form. Nonspecific binding was defined with 100 μM cold histamine. […] Membranes were harvested by rapid filtration using the 96 well Brandel system or a cell harvester using a Whatman GF/C filter or filter plates treated with 0.5% polyethylenimine (PEI), and washed 4 times with ice-cold 50 mM Tris/5 mM EDTA buffer. Filters were then dried, mixed with scintillant and radioactive counts were determined. […] Data marked with an asterisk (*) were obtained by the cell harvester method. Where activity is shown as greater than (>) a particular value, the value is the highest concentration tested.
As to `Cc1nc(N)nc(N2CC3CCNC3C2)c1C` (stereo not drawn) [Example 29, 4-(cis-Hexahydro-pyrrolo[3,4-b]pyrrol-5-yl)-5,6-dimethyl-pyrimidin-2-ylamine], the Ki is more than 10000 nM.

For `Cc1nc(N)nc(N2C[C@H]3CN(C)C[C@H]3C2)c1C` [Example 30, 4,5-Dimethyl-6-(cis-5-methyl-hexahydro-pyrrolo[3,4-c]pyrrol-2-yl)-pyrimidin-2-ylamine], the inhibition constant Ki came out at 530 nM.

Regarding `Cc1nc(N)nc(N2CC3CCCNC3C2)c1C` (stereo not drawn) [Example 31, 4,5-Dimethyl-6-(cis-octahydro-pyrrolo[3,4-b]pyridin-6-yl)-pyrimidin-2-ylamine], the Ki was found to be 249 nM.

Consider `Cc1nc(N)nc(N2C[C@@H]3C[C@H]2CN3)c1C` [Example 32, (S,S)-4-(2,5-Diaza-bicyclo[2.2.1]hept-2-yl)-5,6-dimethyl-pyrimidin-2-ylamine], for which the Ki is more than 10000 nM.

Turning to `CCc1cc(N2CCNCC2)nc(N)n1` [Example 33, 4-Ethyl-6-piperazin-1-yl-pyrimidin-2-ylamine], the inhibition constant (Ki) is 10 nM.

As to `CCc1cc(N2CCN(C)CC2)nc(N)n1` [Example 34, 4-Ethyl-6-(4-methyl-piperazin-1-yl)-pyrimidin-2-ylamine], the Ki is 6 nM.

Consider `CCc1cc(N2CC[C@@H](N)C2)nc(N)n1` [Example 35, (R)-4-(3-Amino-pyrrolidin-1-yl)-6-ethyl-pyrimidin-2-ylamine], for which the Ki amounted to 21 nM.

Regarding `CCc1cc(N2CC[C@@H](NC)C2)nc(N)n1` [Example 36, (R)-4-Ethyl-6-(3-methylamino-pyrrolidin-1-yl)-pyrimidin-2-ylamine], the inhibition constant Ki came to 21 nM.

As to `CCc1cc(N2C[C@H]3CCN[C@H]3C2)nc(N)n1` [Example 37, (R,R)-(4-Ethyl-6-hexahydro-pyrrolo[3,4-b]pyrrol-5-yl)-pyrimidin-2-ylamine], the Ki came out at 27 nM.

Turning to `CCc1cc(N2C[C@H]3CNC[C@H]3C2)nc(N)n1` [Example 38, 4-Ethyl-6-(cis-hexahydro-pyrrolo[3,4-c]pyrrol-2-yl)-pyrimidin-2-ylamine], the Ki stood at 559 nM.

For the compound `CCc1cc(N2C[C@H]3CCCN[C@H]3C2)nc(N)n1` [Example 39, (R,R)-(4-Ethyl-6-octahydro-pyrrolo[3,4-b]pyridin-6-yl)-pyrimidin-2-ylamine], the Ki turned out to be 10 nM.

As to `CN1CCN(c2cc(C3CC3)nc(N)n2)CC1` [Example 40, 4-Cyclopropyl-6-(4-methyl-piperazin-1-yl)-pyrimidin-2-ylamine], the Ki came to 8 nM.

Regarding `CN[C@@H]1CCN(c2cc(C3CC3)nc(N)n2)C1` [Example 41, (R)-(4-Cyclopropyl-6-3-methylamino-pyrrolidin-1-yl)-pyrimidin-2-ylamine], the inhibition constant (Ki) is 28 nM.

With `Nc1nc(C2CC2)cc(N2CC3CCCNC3C2)n1` (stereo not drawn) [Example 42, 4-Cyclopropyl-6-(cis-octahydro-pyrrolo[3,4-b]pyridin-6-yl)-pyrimidin-2-ylamine], the Ki is 18 nM.

For `Nc1nc(C2CCC2)cc(N2CCNCC2)n1` [Example 43, 4-Cyclobutyl-6-piperazin-1-yl-pyrimidin-2-ylamine], the Ki was 2 nM.

Regarding `CN1CCN(c2cc(C3CCC3)nc(N)n2)CC1` [Example 44, 4-Cyclobutyl-6-(4-methyl-piperazin-1-yl)-pyrimidin-2-ylamine], the Ki amounted to 1 nM.

Take `Nc1nc(C2CCC2)cc(N2CCC[C@@H](N)C2)n1` [Example 45, (R)-4-(3-Amino-piperidin-1-yl)-6-cyclobutyl-pyrimidin-2-ylamine]: the Ki is 103 nM.

With `CN[C@@H]1CCN(c2cc(C3CCC3)nc(N)n2)C1` [Example 46, (R)-4-Cyclobutyl-6-(3-methylamino-pyrrolidin-1-yl)-pyrimidin-2-ylamine], the inhibition constant Ki was 2 nM.

On to `Nc1nc(C2CCC2)cc(N2CC3CCNC3C2)n1` (stereo not drawn) [Example 47, 4-Cyclobutyl-6-(cis-hexahydro-pyrrolo[3,4-b]pyrrol-5-yl)-pyrimidin-2-ylamine], for which the inhibition constant Ki is 11 nM.

Take `Nc1nc(C2CCC2)cc(N2C[C@H]3CNC[C@H]3C2)n1` [Example 48, 4-Cyclobutyl-6-(cis-hexahydro-pyrrolo[3,4-c]pyrrol-2-yl)-pyrimidin-2-ylamine]: the Ki worked out at 328 nM.

Turning to `CN1C[C@@H]2CN(c3cc(C4CCC4)nc(N)n3)C[C@@H]2C1` [Example 49, 4-Cyclobutyl-6-(cis-5-methyl-hexahydro-pyrrolo[3,4-c]pyrrol-2-yl)-pyrimidin-2-ylamine], the Ki turned out to be 50 nM.

As for `Nc1nc(C2CCC2)cc(N2CC3CCCNC3C2)n1` (stereo not drawn) [Example 50, 4-Cyclobutyl-6-(cis-octahydro-pyrrolo[3,4-b]pyridin-6-yl)-pyrimidin-2-ylamine], the inhibition constant (Ki) turned out to be 3 nM.

Regarding `Nc1nc(C2CCC2)cc(N2C[C@H]3CCCN[C@H]3C2)n1` [Example 51, (R,R)-(4-Cyclobutyl-6-cis-octahydro-pyrrolo[3,4-b]pyridin-6-yl)-pyrimidin-2-ylamine], the Ki was 3 nM.

Regarding `CN1CCN(c2cc(C3CCCCC3)nc(N)n2)CC1` [Example 52, 4-Cyclohexyl-6-(4-methyl-piperazin-1-yl)-pyrimidin-2-ylamine], the inhibition constant (Ki) is 3 nM.

`CN[C@@H]1CCN(c2cc(C3CCCCC3)nc(N)n2)C1` [Example 53, (R)-(4-Cyclohexyl-6-3-methylamino-pyrrolidin-1-yl)-pyrimidin-2-ylamine]: the inhibitory constant (Ki) is 3 nM.

For the compound `Nc1nc(C2CCCCC2)cc(N2CC3CCNC3C2)n1` (stereo not drawn) [Example 54, 4-Cyclohexyl-6-(cis-hexahydro-pyrrolo[3,4-b]pyrrol-5-yl)-pyrimidin-2-ylamine], the Ki is 2 nM.

`Nc1nc(C2CCCCC2)cc(N2C[C@H]3CCCN[C@H]3C2)n1` [Example 55, (R,R)-4-Cyclohexyl-6-(octahydro-pyrrolo[3,4-b]pyridin-6-yl)-pyrimidin-2-ylamine]: the Ki came out at 1 nM.

`Nc1nc(C2CCOC2)cc(N2CCNCC2)n1` (centres unmarked) [Example 56, 4-piperazin-1-yl-6-(tetrahydro-furan-3-yl)-pyrimidin-2-ylamine]: the Ki is 20 nM.

Consider `CN1CCN(c2cc(C3CCOC3)nc(N)n2)CC1` (centres unmarked) [Example 57, 4-(4-Methyl-piperazin-1-yl)-6-(tetrahydro-furan-3-yl)-pyrimidin-2-ylamine], for which the Ki came to 27 nM.

With `Nc1nc(C2CCOCC2)cc(N2CCNCC2)n1` [Example 58, 4-piperazin-1-yl-6-(tetrahydro-pyran-4-yl)-pyrimidin-2-ylamine], the Ki was 41 nM.

With `CN1CCN(c2cc(C3CCOCC3)nc(N)n2)CC1` [Example 59, 4-(4-Methyl-piperazin-1-yl)-6-(tetrahydro-pyran-4-yl)-pyrimidin-2-ylamine], the Ki was 29 nM.

In the case of `CN[C@@H]1CCN(c2cc(C3CCOCC3)nc(N)n2)C1` [Example 60, (R)-4-(3-Methylamino-pyrrolidin-1-yl)-6-(tetrahydro-pyran-4-yl)-pyrimidin-2-ylamine], the Ki was found to be 31 nM.

In the case of `Nc1nc(C2CCOCC2)cc(N2C[C@H]3CCCN[C@H]3C2)n1` [Example 61, (R,R)-4-(Octahydro-pyrrolo[3,4-b]pyridin-6-yl)-6-(tetrahydro-pyran-4-yl)-pyrimidin-2-ylamine], the inhibitory constant (Ki) is 24 nM.

Regarding `Nc1nc(Cc2ccccc2)cc(N2CCNCC2)n1` [Example 62, 4-Benzyl-6-piperazin-1-yl-pyrimidin-2-ylamine], the Ki was 30 nM.

With `CN1CCN(c2cc(Cc3ccccc3)nc(N)n2)CC1` [Example 63, 4-Benzyl-6-(4-methyl-piperazin-1-yl)-pyrimidin-2-ylamine], the inhibitory constant (Ki) came out at 21 nM.

For `Nc1nc(Cc2ccccc2)cc(N2C[C@H]3CCCN[C@H]3C2)n1` [Example 65, (R,R)-4-Benzyl-6-(octahydro-pyrrolo[3,4-b]pyridin-6-yl)-pyrimidin-2-ylamine], the inhibition constant (Ki) turned out to be 47 nM.

For `CN1CCN(c2nc(N)nc3c2CCCC3)CC1` [Example 66, 4-(4-Methyl-piperazin-1-yl)-5,6,7,8-tetrahydro-quinazolin-2-ylamine], the Ki was determined as 4 nM.

With `Nc1nc2c(c(N3CC[C@@H](N)C3)n1)CCCC2` [Example 68, (R)-4-(3-Amino-pyrrolidin-1-yl)-5,6,7,8-tetrahydro-quinazolin-2-ylamine], the Ki is 115 nM.

With `CN[C@@H]1CCN(c2nc(N)nc3c2CCCC3)C1` [Example 69, (R)-4-(3-Methylamino-pyrrolidin-1-yl)-5,6,7,8-tetrahydro-quinazolin-2-ylamine], the inhibition constant Ki was 43 nM.

Consider `Nc1nc2c(c(N3C[C@H]4CCN[C@H]4C3)n1)CCCC2` [Example 70, (R,R)-4-(Hexahydro-pyrrolo[3,4-b]pyrrol-5-yl)-5,6,7,8-tetrahydro-quinazolin-2-ylamine], for which the Ki is 404 nM.

For `Nc1nc2c(c(N3CC4CCCNC4C3)n1)CCCC2` (stereo not drawn) [Example 71, 4-(cis-Octahydro-pyrrolo[3,4-b]pyridin-6-yl)-5,6,7,8-tetrahydro-quinazolin-2-ylamine], the inhibitory constant (Ki) is 5 nM.

On to `Nc1nc2c(c(N3C[C@H]4CCCN[C@H]4C3)n1)CCCC2` [Example 72, (R,R)-4-(Octahydro-pyrrolo[3,4-b]pyridin-6-yl)-5,6,7,8-tetrahydro-quinazolin-2-ylamine], for which the inhibitory constant (Ki) came out at 14 nM.

As to `Nc1nc2c(c(N3C[C@@H]4C[C@H]3CN4)n1)CCCC2` [Example 73, (S,S)-4-(2,5-Diaza-bicyclo[2.2.1]hept-2-yl)-5,6,7,8-tetrahydro-quinazolin-2-ylamine], the Ki is more than 10000 nM.

For the compound `CN1CCN(c2nc(N)nc3c2CCC3)CC1` [Example 74, 4-(4-Methyl-piperazin-1-yl)-6,7-dihydro-5H-cyclopentapyrimidin-2-ylamine], the Ki is 76 nM.
